Experimental data as given in US9289471B2, “Product and process for liquefaction of mucus or sputum” (National Jewish Health, priority 2002, dated 2016).

Assay: Compaction assay: percent liquid fraction of CF sputum
Parameters: species or system human
Conditions: for 3 day range of percent of sputum in the liquid state: donor B; for range of percent liquid values: donor C; for percent liquid fraction: 20 min (FIG. 3A); for liquefying sputum: concentrations below 1 mM
Protocol: CF sputum stored at −80° C. was thawed at room temperature and aliquoted into 1.5 ml Eppendorf centrifuge tubes at volumes of 275 μl using a positive displacement pipette (Rainin, Emeryville, Calif.). Sputum samples were subjected to either diluent (H2O), Trx+TR+NADPH, GSH+glutathione reductase+NADPH, dithiothreitol (DTT) or N-acetylcysteine treatment by the addition of 25 μl of H2O containing the appropriate molar concentration of each agent. After brief vortexing (˜1 second), sample tubes were loaded onto a microtube rotisserie (Barnstead, Dubuque, Iowa) and incubated at 37° C. for 20 minutes. Samples were then processed for compaction assay according to methodology originated by Daugherty et al. (Daugherty et al., Biomaterials 16:553-558, 1995). To perform the assay, the contents of each sample were loaded into 100 μl glass micro-capillary tubes (Fisher Scientific) that had been previously welded to 200 μl pipette tips in order to achieve a tight fit. Three modified capillary tubes were used to draw up >90% of each sputum sample. Capillary tubes were then removed from their pipette tip, sealed with clay, and centrifuged for 10 minutes in a hematocrit centrifuge (IEC, Needham Heights, Mass.), followed by measurement of the length in millimeters of the gel (solid) and aqueous (liquid) phases in each tube. The percent liquid fraction of each capillary tube was calculated by dividing aqueous phase length by total length (gel+aqueous)×100. The three measurements of the liquid fraction (%) derived from each sample were then averaged to generate a single value for each treatment condition.
Due to abnormal ion transport caused by defects in the CFTR gene, airway secretions in CF patients are often desiccated. As a consequence, purulent CF sputum is comprised largely of a rigid and nonflowing biopolymer matrix, often referred to as gel phase, and lesser amounts of soluble, liquid phase. To assess the effect of Trx on the ratios of these two phases in sputum, compaction assay measurements were performed. […] After 20 minute incubation, the liquid fraction of each sample was determined by compaction assay.
To examine the effect of NADPH, additional samples from different donors were treated with 30 μM Trx, 0.1 μM TR and either 0, 0.2, 0.6, 1.0 or 2 mM NADPH for 20 minutes.
To assess the reproducibility of compaction assay measurements, sputum samples from three different CF donors were separated into aliquots and frozen. Specifically, freshly isolated CF sputum from three different donors (A, B, C) was separated into 275 μl aliquots and frozen. […] Results obtained from three independent experiments performed on each donor sample were used to evaluate assay reproducibility. On three consecutive days, aliquots were thawed, and treated with water, Trx and its reducing system, dithiothreitol (DTT), or no treatment.
The effectiveness of Trx in liquefying sputum was compared with other monothiol and dithiol reducing agents. Sputum samples were aliquoted and treated with Trx or GSH for 20 minutes and percent liquid determined by compaction assay. Initial compaction assay experiments compared the potencies of the Trx and GSH reducing systems in liquefaction of sputum in the presence of equimolar concentrations of NADPH. […] The analysis of Trx and NAC efficacy also was determined after 20 minute incubation, but on a different set of sputum samples.

O[C@H](CS)[C@H](O)CS (racemic) [DTT, dithiothreitol]
3 day range of percent of sputum in the liquid state (1 mM DTT): 24-31% | 3 day range of percent of sputum in the liquid state (5 mM DTT): 42-57% | range of percent liquid values (1 mM DTT): 57-61% | range of percent liquid values (5 mM DTT): 77-79% | sputum liquefying effectiveness compared with NAC (equimolar basis (FIGS. 2 and 3; data not shown)): more effective on an equimolar basis than NAC

N[C@@H](CCC(=O)N[C@@H](CS)C(=O)NCC(=O)O)C(=O)O [GSH, glutathione]
percent liquid fraction (30 μM GSH + 0.1 μM Gr + 2 mM NADPH): 7.8±5.7% | percent liquid fraction (100 μM GSH + 0.1 μM Gr + 2 mM NADPH): 15.9±9.3% | percent liquid fraction (1 mM GSH + 0.1 μM Gr + 2 mM NADPH): 27.6±3.9% | significance of increase in liquid fraction versus control (GSH at comparable or higher concentrations up to 1 mM): a significant increase in the liquid fraction of sputum was not observed | liquefying sputum: ineffective

CC(=O)N[C@@H](CS)C(=O)O [N-acetylcysteine]
liquefying sputum: ineffective | effectiveness in causing liquefaction of sputum compared with Trx (range of concentrations, 20 min, 4 experiments (FIG. 3B)): less effective than Trx

NC(=O)C1=CN([C@@H]2O[C@H](COP(=O)(O)OP(=O)(O)OC[C@H]3O[C@@H](n4cnc5c(N)ncnc54)[C@H](OP(=O)(O)O)[C@@H]3O)[C@@H](O)[C@H]2O)C=CC1 [NADPH, β-Nicotinamide adenine dinucleotide phosphate, reduced form]
increase in proportion of sputum present in the liquid fraction (NADPH in the absence of Trx (not shown)): did not cause any increase
